{"source": "patent US9585867B2", "about": "“Cannabinod formulation for the sedation of a human or animal” (priority 2015, dated 2017)", "key": {"cannabinoid receptor": {"tested_on": "cannabinoid receptor", "conditions": "cited from earlier work"}, "dogs": {"tested_on": "dogs", "conditions": "cited from earlier work"}, "laboratory animals": {"tested_on": "laboratory animals", "conditions": "cited from earlier work"}, "monkeys [1]": {"tested_on": "monkeys", "test": "Repeated intravenous study with emulsified tetrahydrocannabinol in monkeys", "assay_type": "in vivo", "conditions": "near-pure tetrahydrocannabinol", "description": "Subsequently, intravenous studies were repeated using tetrahydrocannabinol emulsified in a sesame oil, polysorbate 80, or saline vehicles at 15 mg/ml or 40 mg/ml. The emulsions were administered at a uniform rate of 2 ml/15 sec. Doses administered were 1, 4, 16, 64, 92, 128, 192 and 256 mg/kg. All monkeys injected with 92 mg/kg or less survived and completely recovered from all effects within two to four days. An analogous intravenous dosage for a 100 kg human would be 9,200 mg (9.2 g) of near-pure tetrahydrocannabinol. All monkeys injected with 128 mg/kg or more succumb within thirty minutes for all but one subject, which took one-hundred-and-eighty minutes to expire. An analogous lethal intravenous dosage for a 100 kg human would be 12,800 mg (12.8 g) of near-pure tetrahydrocannabinol.\nHistopathological changes found in the lungs of the deceased monkeys were like those described after the previous intravenous experiment. […] Behavioral changes preceding death were salivation, prostration, coma, and tremors.\nBehavioral and physiological changes described clinically in the surviving monkeys followed a consistent developmental sequence and were roughly dose related in severity and duration. Onset was fifteen minutes following injection and duration was up to forty-eight hours. Huddled posture and lethargy were the most persistent changes. Constipation, anorexia, and weight loss were noted. […]"}, "monkeys [2]": {"tested_on": "monkeys", "conditions": "cited from earlier work"}, "rats": {"tested_on": "rats", "conditions": "cited from earlier work"}, "[3]": {"test": "Inventor experimentation: intermuscular injection of tetrahydrocannabinol, incapacitation", "assay_type": "in vivo, human", "conditions": "intermuscular injection of 5.0 mg; overall healthy, 100 kg person", "description": "If it is unnecessary to “immediately”, or to “near-immediately”, incapacitate a recipient, the inventive formulation may strictly consist of cannabinoids such as tetrahydrocannabinol. During instant inventor experimentation, an intermuscular injection of 5.0 mg of tetrahydrocannabinol rendered an overall healthy, 100 kg person, fully incapacitated within 10-30 seconds, with its effects lasting approximately four-to-six hours."}, "mice": {"tested_on": "mice", "conditions": "cited from earlier work"}, "monkey": {"tested_on": "monkey", "conditions": "cited from earlier work"}, "dog": {"tested_on": "dog", "conditions": "cited from earlier work"}, "monkeys [4]": {"tested_on": "monkeys", "conditions": "cited from earlier work", "remark": "listed apart in the source"}, "[5]": {"conditions": "intravenous emulsion 15 or 40 mg/ml, 2 ml/15 sec"}}, "note": "Like-named read-outs stand apart in the source and are kept apart here."}
{"smiles": "CCCCCCC(C)(C)c1ccc([C@@H]2C[C@H](O)CC[C@H]2CCCO)c(O)c1", "note": "[CP-55940]", "values": [{"measurement": "potency relative to phyto-cannabinoid THC", "setting": "cannabinoid receptor", "result": "many times more potent"}]}
{"smiles": "CCCCCc1cc(O)c2c(c1)OC(C)(C)[C@@H]1CCC(C)=C[C@@H]21", "note": "[tetrahydrocannabinol]", "values": [{"measurement": "time to complete recovery of survivors", "setting": "dogs; dogs that survived the intravenous injection", "result": "five to nine"}, {"measurement": "minimal lethal intravenous dose", "setting": "dogs; dogs, depending upon concentration", "result": "25 to 99", "unit": "mg/kg"}, {"measurement": "time to lethality after intravenous injection", "setting": "dogs; dogs, intravenous", "result": "within minutes"}, {"measurement": "acute one dose LD50", "setting": "dogs; intravenous, dogs", "result": 100, "unit": "mg/kg"}, {"measurement": "lowest intravenous dosage which causes death", "setting": "laboratory animals; intravenous", "result": "approximately 1000 mg per kg of body weight"}, {"measurement": "typical lethal oral dosage", "setting": "laboratory animals; oral", "result": "225-450 mg per kg of body weight"}, {"measurement": "analogous intravenous dosage for a 100 kg human (survived dose)", "setting": "monkeys [1]; extrapolated from 92 mg/kg in monkeys", "result": "9,200 mg"}, {"measurement": "analogous lethal intravenous dosage for a 100 kg human", "setting": "monkeys [1]; extrapolated from 128 mg/kg in monkeys", "result": "12,800 mg"}, {"measurement": "acute one dose LD50", "setting": "monkeys [2]; intravenous, monkeys, depending on concentration of the solution", "result": "15.6 to 62.5", "unit": "mg/kg"}, {"measurement": "time to complete recovery of survivors", "setting": "monkeys [2]; monkeys that survived the intravenous injection", "result": "five to nine"}, {"measurement": "minimal lethal intravenous dose", "setting": "monkeys [2]; monkeys, depending upon concentration", "result": "3.9 to 15.5", "unit": "mg/kg"}, {"measurement": "time to lethality after intravenous injection", "setting": "monkeys [2]; monkeys, intravenous", "result": "within minutes"}, {"measurement": "LD50 dose", "setting": "rats", "result": "28.6 mg per 42.47 kg of body weight"}, {"measurement": "time to lethality after intravenous injection", "setting": "rats; intravenous", "result": "within minutes"}, {"measurement": "duration of effects", "setting": "[3]", "result": "four-to-six"}, {"measurement": "time to full incapacitation", "setting": "[3]", "result": "10 to 30", "unit": "s"}, {"measurement": "LD50 dose", "setting": "mice", "result": "28.6 mg per 42.47 kg of body weight"}, {"measurement": "nonlethal oral consumption", "setting": "monkey", "result": 3, "unit": "g/kg"}, {"measurement": "nonlethal oral consumption", "setting": "dog", "result": 3, "unit": "g/kg"}, {"measurement": "fatalities", "setting": "monkeys [4]; 92 mg/kg intravenously, monkeys", "result": "no fatalities"}, {"measurement": "time to death", "setting": "monkeys [4]; 128 mg/kg or more, the one remaining subject", "result": "one-hundred-and-eighty"}, {"measurement": "dose at which all monkeys succumb", "setting": "monkeys [4]; [5]", "result": "≥ 128", "unit": "mg/kg"}, {"measurement": "dose at which all monkeys survived", "setting": "monkeys [4]; [5]", "result": "≤ 92", "unit": "mg/kg"}, {"measurement": "time to complete recovery from all effects", "setting": "monkeys [4]; monkeys injected with 92 mg/kg or less", "result": "two to four"}, {"measurement": "time to death", "setting": "monkeys [4]; monkeys injected with 128 mg/kg or more, all but one subject", "result": "thirty"}, {"measurement": "time to severe respiratory depression and bradycardia after injection", "setting": "monkeys [4]; monkeys that died", "result": "five"}, {"measurement": "duration of behavioral and physiological changes", "setting": "monkeys [4]; surviving monkeys", "result": "up to forty-eight"}, {"measurement": "onset of behavioral and physiological changes following injection", "setting": "monkeys [4]; surviving monkeys", "result": "fifteen"}, {"measurement": "time of maximal hypothermia, bradycardia and decreased respiratory rate post injection", "setting": "monkeys [4]; surviving monkeys", "result": "two-to-six"}]}
{"smiles": "CCCCCCC(C)(C)c1cc(O)c2c(c1)OC(C)(C)[C@@H]1CC=C(CO)C[C@@H]21", "note": "[HU-210]", "values": [{"measurement": "potency relative to phyto-cannabinoid THC", "setting": "cannabinoid receptor", "result": "about 100 times"}]}
